Experimental data published in patent US20070021360A1, “Compositions, formulations and kit with anti-sense oligonucleotide and anti-inflammatory steroid and/or obiquinone for treatment of respiratory and lung disesase” (priority 2001, published 2007).

How the values were obtained:
[1] = system: adenosine A1 receptor; assay: Adenosine-induced bronchoconstriction (PC50 Adenosine) in allergic rabbits; assay type: in vivo
Experimental: A fortuitous hoology between the rabbit and human DNA sequences within the adenosine A1 gene overlapping the initiation codon permitted the use of the phosphorothioate anti-sense oligonucleotides initially designed for use against the human adenosine A1 receptor in a rabbit model. Neonatal New Zealand white Pasteurella-free rabbits were immunized intraperitoneally within 24 hours of birth with 312 antigen units/ml house dust mite (D. farinae) extract (Berkeley Biologicals, Berkeley, Calif.), mixed with 10% kaolin. Immunizations were repeated weekly for the first month and then biweekly for the next 2 months. At 3-4 months of age, eight sensitized rabbits were anesthetized and relaxed with a mixture of ketamine hydrochloride (44 mg/kg) and acepromazine maleate (0.4 mg/kg) administered intramuscularly. The rabbits were then laid supine in a comfortable position on a small molded, padded animal board and intubated with a 4.0-mm intratracheal tube (Mallinkrodt, Inc., Glens Falls, N.Y.). A polyethylene catheter of external diameter 2.4 mm with an attached latex balloon was passed into the esophagus and maintained at the same distance (approximately 16 cm) from the mouth throughout the experiments. The intratracheal tube was attached to a heated Fleisch pneumotachograph (size 00; DOM Medical, Richmond, Va.), and flow was measured using a Validyne differential pressure transducer (Model DP-45161927; Validyne Engineering Corp., Northridge, Calif.) driven by a Gould carrier amplifier (Model 11-4113; Gould Electronic, Cleveland, Ohio). The esophageal balloon was attached to one side of the differential pressure transducer, and the outflow of the intratracheal tube was connected to the opposite side of the pressure transducer to allow recording of transpulmonary pressure. Flow was integrated to give a continuous tidal volume, and measurements of total lung resistance (RL) and dynamic compliance (Cdyn) were calculated at isovolumetric and flow zero points, respectively, using an automated respiratory analyzer (Model 6; Buxco, Sharon, Conn.). Animals were randomized and on Day 1 pretreatment values for PC50 were obtained for aerosolized adenosine. Anti-sense (HAdA1AS) or mismatched control (HAdA1MM) oligonucleotides were dissolved in sterile physiological saline at a concentration of 5000 μg (5 mg) per 1.0 ml. […] Aerosols of either saline, adenosine, or anti-sense or mismatch oligonucleotides were generated by an ultrasonic nebulizer (DeVilbiss, Somerset, Pa.), producing aerosol droplets 80% of which were smaller than 5:m in diameter. In the first arm of the experiment, four randomly selected allergic rabbits were administered anti-sense oligonucleotide and four the mismatched control oligonucleotide. On the morning of the third day, PC50 values (the concentration of aerosolized adenosine in mg/ml required to reduce the dynamic compliance of the bronchial airway 50% from the baseline value) were obtained and compared to PC50 values obtained for these animals prior to exposure to oligonucleotide. Following a 1 week interval, animals were crossed over, with those previously administered mismatch control oligonucleotide now administered anti-sense oligonucleotide, and those previously treated with anti-sense oligonucleotide now administered mismatch control oligonucleotide. Treatment methods and measurements were identical to those employed in the first arm of the experiment. […] For the purpose of calculation, PC50 values for these animals were set at 20 mg/ml. The values given therefore represent a minimum figure for anti-sense effectiveness. Actual effectiveness was higher.
Aerosols of either adenosine (0-20 mglnml), or anti-sense or one of two mismatch oligonucleotides (5 mg/ml) were separately prepared with an ultrasonic nebulizer (Model 646, DeVilbiss, Somerset, Pa.), which produced aerosol droplets, 80% of which were smaller than 5:m in diameter. […]

[2] = molecular target: T1, B2 bradykinin receptor (Oryctolagus cuniculus, UniProt Q28642); assay: Bradykinin B2 receptor binding ([3H]NPC 17731) in airway smooth muscle membranes of treated rabbits; parameters: species or system rabbit; conditions: for B2 receptor Bmax: [3H]NPC 17731
T1 construct: Tissue from airway smooth muscle was dissected to primary, secondary and tertiary bronchi from rabbits; from tissue; host or cells: rabbit airway smooth muscle membranes
T1 sequence (Q28642 1-367): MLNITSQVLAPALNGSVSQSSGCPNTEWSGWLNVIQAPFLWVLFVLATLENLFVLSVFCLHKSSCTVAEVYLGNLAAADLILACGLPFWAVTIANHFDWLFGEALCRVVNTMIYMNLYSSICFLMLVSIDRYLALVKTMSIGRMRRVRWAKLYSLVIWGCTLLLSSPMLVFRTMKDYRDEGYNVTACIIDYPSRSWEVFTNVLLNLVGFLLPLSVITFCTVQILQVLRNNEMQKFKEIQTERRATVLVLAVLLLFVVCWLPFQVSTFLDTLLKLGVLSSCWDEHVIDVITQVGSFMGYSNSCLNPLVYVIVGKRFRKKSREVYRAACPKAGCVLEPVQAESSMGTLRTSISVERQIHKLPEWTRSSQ
Experimental: A membrane fraction was prepared according to the method of Ali et al. (Ali, S., et al., Am. J. Resp. Crit Care Med. 149: 908 (1994), the relevant section relating to the preparation of the membrane fraction is incorporated in its entirety hereby by reference). The protein content was determined by the method of Bradford and plasma membranes were incubated with 0.2 U/ml adenosine deaminase for 30 minutes at 37 EC to remove endogenous adenosine. See, Bradford, M. M. Anal. Biochem. 72, 240-254 (1976), the relevant portion of which is hereby incorporated in its entirety by reference. The binding of [^3H]DPCPX, [^3H]NPC17731, or [^3H]CGS-21680 was measured as described by Jarvis et al. See, Jarvis, M. F., et al., Pharmacol. Exptl. Ther. 251, 888-893 (1989), the relevant portion of which is fully incorporated herein by reference.

## 5′-GTAGCAGGCGGGGATGGGGGC-3′ [HAdA1MM1, reference compound]
[1]; allergic rabbits, cross-over experiment, 20 mg total aerosolized oligo
  effect on PC50 Adenosine value: No effect
[1]; asthmatic rabbits, approx. 5 mg aerosolized oligo twice daily for two days, third day, non-responders set at 20 mg/ml, mean (n = 8) ± SEM
  PC50 Post Oligonucleotide: 5.16 ± 1.03 mg/mL
[1]; asthmatic rabbits, baseline before oligonucleotide, aerosolized adenosine reducing dynamic compliance 50%, mean (n = 8) ± SEM
  PC50 Pre Oligonucleotide: 3.56 ± 1.02 mg/mL
[1]; rabbits receiving inhaled oligonucleotide
  toxicity: No toxicity was observed
[2]; Kd of [3H]NPC 17731 in membranes of rabbits treated with 2 mg oligo
  Kd: 0.38 ± 0.028 nM
[2]; Kd of [3H]NPC 17731 in membranes of rabbits treated with 20 mg oligo
  Kd: 0.35 ± 0.024 nM
[2]; rabbits treated with 2 mg oligo
  B2 receptor Bmax: 14.6 ± 1.02 fmol
[2]; rabbits treated with 20 mg oligo
  B2 receptor Bmax: 14.0 ± 1.0 fmol
